The text below walks through data of PubChem BioAssay (NCI).

What all share (assay): DTP human tumour cell line panel, 48 h
In assay [1] the test system is EKVX NSCLC.
The subject of assay [2] is MDA-N.
Assay [3] relates to SW-620 colon.
In assay [4] the test system is SN12C renal.
In assay [5] the test system is SNB-75 CNS.
Assay [6] has as its system UACC-62 melanoma.
In assay [7] the test system is HOP-62 NSCLC.
Assay [8] has as its system A498 renal.
Assay [9] concerns LOX IMVI melanoma.
In assay [10] the test system is SR leukemia.
For assay [11], the system named is HS 578T breast.
Assay [12] concerns KM12 colon.
Assay [13] deals with SNB-19 CNS.
Assay [14] concerns HT29 colon.
The test system of assay [15] is NCI-H226 lung.
The subject of assay [16] is SK-OV-3 ovarian.
Assay [17] relates to HCT-116 colon.
Assay [18] deals with RXF 393 renal.
Assay [19] concerns SK-MEL-2 melanoma.

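A five-concentration, 48-hour dose response in 96-well plates underlies each endpoint, interpolated linearly between surrounding concentrations. The concentration for full growth arrest is given as TGI.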

The TGI is the concentration at which net growth stops. The low end stands for more potent growth arrest, the high end for less potent growth arrest. Consider `COc1cc(C2SC(N)=Nc3c2c(C)nn3C(=O)Cc2ccccc2)ccc1O` (stereo unspecified), for which the TGI is greater than 100 µM in assay [1]; greater than 100 µM in assay [2]; greater than 100 µM in [3]; greater than 100 µM in [4]; 75.2 µM in assay [5]; greater than 100 µM in assay [6]. The TGI in assay [7], in [8], in assay [9], in assay [10], in assay [11] and in [12] was greater than 100 µM throughout. In addition, the TGI in assay [13], in assay [14], in assay [15], in [16] and in [17] was greater than 100 µM each time.

Consider `COc1ccc(C2Oc3c(cccc3OC)C=C2[N+](=O)[O-])cc1` (stereo unspecified), for which the TGI in assay [1] came out at 25.6 µM; in assay [18], 2.7 µM; in assay [2], 13.1 µM; in assay [4], 5.66 µM; in assay [6], 5.72 µM; in assay [7], 5.8 µM. The TGI in assay [9] was 2.81 µM; in assay [10] it was greater than 100 µM; in assay [11], 8.82 µM; in assay [12] it was 4.52 µM; in assay [13], 16.6 µM; in [14] it was 4.59 µM. In addition, the TGI in assay [16] stood at 15.3 µM; in assay [17], 2.55 µM.

Consider `CC1(c2nc3cc(Cl)c(Cl)cc3[nH]2)CCC(C(=O)O)C(C)(C)O1` (stereo unspecified), for which the TGI in assay [1], in assay [18], in assay [2], in assay [3], in assay [4] and in [5] was greater than 100 µM in each case. Further, the total growth inhibition concentration (TGI) in assay [6], in [7], in assay [9], in [10], in assay [11] and in assay [12] was greater than 100 µM each time. The TGI in [13], in assay [14], in assay [19], in [15], in assay [16] and in assay [17] was greater than 100 µM throughout.

With `O=C1CCC2(c3ccc(F)cc3)Nc3ncncc3N12` (stereo unspecified), the total growth inhibition concentration (TGI) in assay [1], in assay [2], in [3], in assay [4], in [5] and in [6] was greater than 10 µM in each case. The TGI in [9], in assay [10], in [11], in assay [12], in assay [13] and in [14] was greater than 10 µM throughout. Further, the TGI in [19] and in [15] was greater than 10 µM each time.

Regarding `CC1CC(=O)NC2CC1C2(C)C` (stereo unspecified), the total growth inhibition concentration (TGI) in assay [18], in [2], in assay [3], in assay [4], in assay [5] and in assay [6] was greater than 100 µM each time. The TGI in assay [9], in assay [10], in [11], in assay [12], in assay [13] and in assay [14] was greater than 100 µM in each case. In addition, the TGI in [19] and in assay [15] was greater than 100 µM each time.

For the compound `C=C1C(=O)O[C@H]2[C@H]3O[C@@H](C[C@@H]12)[C@](C)(O)CCCC(C)=CCC[C@H]3C`, the TGI in assay [1] turned out to be 22.4 µM; in assay [18], 20.3 µM; in assay [2] it was 75.8 µM; in [3] it was 23 µM; in assay [4], 71.4 µM; in [5], 22.3 µM. The TGI was 22.8 µM in assay [6]; 31.3 µM in [7]; 48.2 µM in assay [9]; greater than 100 µM in assay [10]; 29.2 µM in assay [11]; 27.1 µM in [12]. For the same compound, the TGI in [13] amounted to 32.4 µM; in assay [14], 26.7 µM; in assay [19] it was 28.7 µM; in [15], 36.9 µM; in assay [16], 35.3 µM; in assay [17] it was 31.1 µM.

Consider `CC(=O)OCC(OC(C)=O)C(OC(C)=O)C(OC(C)=O)C(/C=N\Nc1nc2ccccc2c(=O)[nH]1)OC(C)=O` (stereo unspecified), for which the TGI in assay [1], in [18], in assay [2], in assay [3], in assay [4] and in assay [5] was greater than 100 µM each time. Moreover, the TGI in assay [6], in assay [7], in [9], in [10], in assay [11] and in assay [12] was greater than 100 µM each time. For the same compound, the TGI in assay [13], in assay [14], in assay [19], in [15], in assay [16] and in assay [17] was greater than 100 µM each time.

Turning to `O=C(O)CCCC#CCCCC(=O)O`, the TGI in assay [1], in assay [18], in [2], in [4], in assay [5] and in assay [6] was greater than 100 µM each time. Moreover, the TGI in assay [7], in assay [8], in [9], in assay [10], in assay [11] and in [12] was greater than 100 µM each time. Also, the TGI in [13], in assay [14], in assay [19], in [16] and in [17] was greater than 100 µM each time.

With `COc1ccc(N=C2C(=Nc3ccc(OC)cc3)N(c3ccccc3[N+](=O)[O-])C(=S)N2c2ccc(OC)cc2)cc1`, the TGI in assay [1], in assay [18], in assay [2], in [3], in [4] and in assay [5] was greater than 100 µM throughout. In addition, the TGI in assay [6], in [7], in assay [10], in assay [11], in assay [12] and in assay [13] was greater than 100 µM in each case. Moreover, the TGI in assay [19], in assay [15], in assay [16] and in [17] was greater than 100 µM each time.

On to `CC(C)[C@H](NC(=O)[C@@H](O)[C@H](N)Cc1ccccc1)C(=O)N[C@@H](Cc1ccccc1)C(=O)O`, for which the TGI in assay [1], in [2], in [3], in assay [4], in [5] and in assay [6] was greater than 100 µM each time. Also, the TGI in assay [7], in assay [8], in assay [9], in [10], in [11] and in assay [12] was greater than 100 µM each time. The total growth inhibition concentration (TGI) in assay [13], in [19], in assay [15], in [16] and in assay [17] was greater than 100 µM throughout.

In the case of `N#C/C(N)=C(\C#N)N=CNc1ccccc1N`, the TGI in assay [1], in assay [2], in assay [3], in [4], in assay [5] and in [6] was greater than 100 µM in each case. Besides, the TGI in assay [7], in [8], in assay [9], in [10], in assay [11] and in assay [12] was greater than 100 µM throughout. For the same compound, the TGI in [13], in assay [14], in assay [19], in [15], in [16] and in assay [17] was greater than 100 µM in each case.

In the case of `CCNC(=O)Cc1nc2c(=O)[nH]cnc2n1C1OC(CO)C(O)C1O` (stereo unspecified), the concentration for total growth inhibition (TGI) in assay [1], in assay [18], in assay [2], in [3], in [4] and in assay [5] was greater than 100 µM throughout. In addition, the TGI in [6], in assay [7], in assay [8], in [9], in [11] and in assay [12] was greater than 100 µM in each case. In addition, the TGI in [13], in assay [14], in assay [19], in assay [15], in assay [16] and in [17] was greater than 100 µM in each case.

In the case of `O=C1c2cccnc2-c2nccc3ccnc1c23`, the concentration for total growth inhibition (TGI) in assay [1] was found to be 3.75 µM; in assay [18] it was 2.52 µM; in [2], 0.465 µM; in assay [3], 1.78 µM; in [4] it was 2.36 µM; in assay [5] it was 5.92 µM. The TGI was 1.88 µM in [6]; 7.95 µM in [7]; 13 µM in [8]; 2.22 µM in [9]; greater than 28.3 µM in [11]; 2.66 µM in [12]. Besides, the concentration for total growth inhibition (TGI) in assay [13] was found to be 10.9 µM; in assay [14], 2.09 µM; in [19] it was 4.64 µM; in assay [15], 2.98 µM; in [16], 2.9 µM; in assay [17] it was 0.0784 µM.

As for `Cc1nn(C(=O)c2ccncc2)c2c1C(c1ccccc1O)SC(N)=N2` (stereo unspecified), the TGI in [1], in assay [18], in assay [2], in assay [3], in [4] and in assay [5] was greater than 10 µM in each case. Besides, the TGI in assay [6], in [7], in assay [9], in assay [10], in assay [11] and in assay [12] was greater than 10 µM in each case. Also, the TGI in assay [13], in assay [14], in assay [19], in assay [15], in assay [16] and in assay [17] was greater than 10 µM each time.

As for `CN(C)N1C(=O)CC2(CCN(CCCC(=O)c3ccc(F)cc3)CC2)C1=O`, the concentration for total growth inhibition (TGI) in [18], in [2], in [3], in [4], in assay [5] and in assay [6] was greater than 100 µM throughout. In addition, the total growth inhibition concentration (TGI) in assay [7], in [8], in [9], in assay [10], in assay [11] and in assay [12] was greater than 100 µM throughout. Moreover, the TGI in assay [13], in [14], in assay [19], in assay [15], in assay [16] and in assay [17] was greater than 100 µM throughout.

Turning to `Clc1ccc(-c2cc(-c3nc4ccccc4[nH]3)no2)cc1`, the TGI in assay [1] came to 34 µM; in [2] it was 33.8 µM; in assay [3], 46.5 µM; in assay [4], 35 µM; in [5], 44.5 µM; in [6], 28.3 µM. Besides, the TGI in [7] came to 38.2 µM; in assay [8] it was 47.5 µM; in assay [9], 35.5 µM; in assay [10], 59.7 µM; in assay [11] it was 79.7 µM; in [12], 40 µM. For the same compound, the TGI is 36 µM in assay [13]; 35.3 µM in assay [14]; 34.7 µM in assay [19]; 79.9 µM in assay [15]; 35.8 µM in assay [16]; 30.6 µM in assay [17].
